Laboratory results from US9808003B2, “Herbicidally active 2-(substituted-phenyl)-cyclopentane-1,3-dione compounds and derivatives thereof” (Syngenta Limited, priority 2013, dated 2017).

Legend:
Assay in all cases: Test 1A glasshouse assay, post-emergence herbicidal activity
Assay type in all cases: in vivo
[1] = tested on: Echinochloa crus-galli (ECHCG); details: application rate 250 g/ha, 13 days after application, visual (100%=total damage; 0%=no damage); for pest or weed control at 250 g/ha: Echinochloa crus-galli, 312 h, read-out: Post-emergence Herbicidal Activity (% Phytotoxicity) ECHCG
Procedure: (§1) Seeds of a variety of test species were sown in standard soil in pots. After cultivation for one day (pre-emergence) or after 8 days cultivation (post-emergence) under controlled conditions in a glasshouse (at 24/16° C., day/night; 14 hours light; 65% humidity), the plants were sprayed with an aqueous spray solution derived from the formulation of the technical active ingredient in acetone/water (50:50) solution containing 0.5% Tween 20 (polyoxyethelyene sorbitan monolaurate, CAS RN 9005-64-5). The test plants were then grown under controlled conditions in a glasshouse (at 24/16° C., day/night; 14 hours light; 65% humidity) and watered twice daily. 13 days after application of the test herbicide, for pre- and post-emergence, the test was evaluated visually for percentage phytotoxicity to the plant (where 100%=total damage to plant; 0%=no damage to plant).
(§2) Lolium perenne (LOLPE), Alopecurus myosuroides (ALOMY), Echinochloa crus-galli (ECHCG), and Avena fatua (AVEFA); these are all grassy monocotyledonous weeds.

Lolium perenne (LOLPE) = details: application rate 250 g/ha, 13 days after application, visual (100%=total damage; 0%=no damage); for pest or weed control at 250 g/ha: Lolium perenne, 312 h, read-out: Post-emergence Herbicidal Activity (% Phytotoxicity) LOLPE
Procedure: as §1, §2

[2] = tested on: Alopecurus myosuroides (ALOMY); details: application rate 250 g/ha, 13 days after application, visual (100%=total damage; 0%=no damage); for pest or weed control at 250 g/ha: Alopecurus myosuroides, 312 h, read-out: Post-emergence Herbicidal Activity (% Phytotoxicity) ALOMY
Procedure: as §1, §2

Avena fatua (AVEFA) = details: application rate 250 g/ha, 13 days after application, visual (100%=total damage; 0%=no damage); for pest or weed control at 250 g/ha: Avena fatua, 312 h, read-out: Post-emergence Herbicidal Activity (% Phytotoxicity) AVEFA
Procedure: as §1, §2

Row | Structure (SMILES) | pest or weed control at 250 g/ha [1] | pest or weed control at 250 g/ha (Lolium perenne (LOLPE)) | pest or weed control at 250 g/ha [2] | pest or weed control at 250 g/ha (Avena fatua (AVEFA)) | Post-emergence Herbicidal Activity (% Phytotoxicity) ECHCG [1] | Post-emergence Herbicidal Activity (% Phytotoxicity) LOLPE (Lolium perenne (LOLPE)) | Post-emergence Herbicidal Activity (% Phytotoxicity) ALOMY [2] | Post-emergence Herbicidal Activity (% Phytotoxicity) AVEFA (Avena fatua (AVEFA))
1 | Cc1cc(C)c(C2C(=O)CC(CCNC(=O)c3ccc(Cl)nc3Cl)C2=O)c(C)c1 (centres unmarked) [Compound A24] | 80% | 90% | 80% | 80% |  |  |  | 
2 | Cc1cc(C)c(C2C(=O)CC(CCNC(=O)c3cc(Cl)nc(Cl)c3)C2=O)c(C)c1 (centres unmarked) [Compound A25] | 80% | 60% | 50% | 40% |  |  |  | 
3 | Cc1cc(C)c(C2C(=O)CC(CCNC(=O)c3cccnc3Cl)C2=O)c(C)c1 (centres unmarked) [Compound A26] | 80% | 80% | 80% | 80% |  |  |  | 
4 | Cc1cc(C)c(C2C(=O)CC(CCNC(=O)c3ccc4ccccc4n3)C2=O)c(C)c1 (centres unmarked) [Compound A27] | 100% | 70% | 80% | 90% |  |  |  | 
5 | COc1cc(C(=O)NCCC2CC(=O)C(c3c(C)cc(C)cc3C)C2=O)cc(Cl)n1 (centres unmarked) [Compound A28] | 80% | 70% | 100% | 50% |  |  |  | 
6 | Cc1cc(C)c(C2C(=O)CC(CCNC(=O)c3ccc(C(F)(F)F)nc3)C2=O)c(C)c1 (centres unmarked) [Compound A29] | 80% | 80% | 80% | 90% |  |  |  | 
7 | Cc1cc(C)c(C2C(=O)CC(CCNC(=O)C3CCOCC3)C2=O)c(C)c1 (centres unmarked) [Compound A35] | 40% | 60% | 80% | 40% |  |  |  | 
8 | Cc1cc(C)c(C2C(=O)CC(CCNC(=O)C3CCOC3)C2=O)c(C)c1 (centres unmarked) [Compound A36] | 80% | 80% | 80% | 70% |  |  |  | 
9 | Cc1cc(C)c(C2C(=O)CC(CCNC(=O)c3cccc[n+]3[O-])C2=O)c(C)c1 (centres unmarked) [Compound A37] | 80% | 90% | 100% | 80% |  |  |  | 
10 | Cc1cc(-c2ccc(Cl)cn2)cc(C)c1C1C(=O)CC(CCNC(=O)c2ccccn2)C1=O (centres unmarked) [Compound A38] | 100% | 100% | 100% | 100% |  |  |  | 
11 | Cc1cc(C)c(C2C(=O)CC(CCNC(=O)c3nc(Cl)ccc3Cl)C2=O)c(C)c1 (centres unmarked) [Compound A39] | 100% | 100% | 100% | 100% |  |  |  | 
12 | Cc1cc(C)c(C2C(=O)CC(CCNC(=O)c3nc(Cl)ccc3Br)C2=O)c(C)c1 (centres unmarked) [Compound A40] | 100% | 100% | 100% | 100% |  |  |  | 
13 | Cc1cc(C)c(C2C(=O)CC(CCNC(=O)c3ncccc3N)C2=O)c(C)c1 (centres unmarked) [Compound A41] | 60% | 70% | 70% | 70% |  |  |  | 
14 | Cc1cc(C)c(C2C(=O)CC(CCNC(=O)c3ncc(C(F)(F)F)cc3Cl)C2=O)c(C)c1 (centres unmarked) [Compound A43] | 100% | 100% | 100% | 100% |  |  |  | 
15 | Cc1cc(C)c(C2C(=O)CC(CCNC(=O)c3ncccc3Cl)C2=O)c(C)c1 (centres unmarked) [Compound A44, 3-chloro-N-[2-[2,4-dioxo-3-(2,4,6-trimethylphenyl)cyclopentyl]ethyl]pyridine-2-carboxamide] | 100% | 100% | 100% | 90% |  |  |  | 
16 | Cc1cc(C)c(C2C(=O)CC(CCNC(=O)Cc3ccccn3)C2=O)c(C)c1 (centres unmarked) [Compound A45] | 60% | 80% | 50% | 80% |  |  |  | 
17 | Cc1cc(C)c(C2C(=O)CC(CCNC(=O)c3ncccc3Br)C2=O)c(C)c1 (centres unmarked) [Compound A46] | 90% | 100% | 60% | 70% |  |  |  | 
18 | Cc1cc(C)c(C2C(=O)CC(CCNC(=O)c3cccc(Cl)n3)C2=O)c(C)c1 (centres unmarked) [Compound A47] | 100% | 100% | 80% | 90% |  |  |  | 

Row | Structure (SMILES) | pest or weed control at 250 g/ha [1] | pest or weed control at 250 g/ha (Lolium perenne (LOLPE)) | pest or weed control at 250 g/ha [2] | pest or weed control at 250 g/ha (Avena fatua (AVEFA)) | Post-emergence Herbicidal Activity (% Phytotoxicity) ECHCG [1] | Post-emergence Herbicidal Activity (% Phytotoxicity) LOLPE (Lolium perenne (LOLPE)) | Post-emergence Herbicidal Activity (% Phytotoxicity) ALOMY [2] | Post-emergence Herbicidal Activity (% Phytotoxicity) AVEFA (Avena fatua (AVEFA))
19 | Cc1cc(C)c(C2C(=O)CC(CCNC(=O)c3cccc(Br)n3)C2=O)c(C)c1 (centres unmarked) [Compound A48] | 100% | 100% | 100% | 90% |  |  |  | 
20 | Cc1cc(C)c(C2C(=O)CC(CCNC(=O)C(F)c3ccccc3)C2=O)c(C)c1 (centres unmarked) [Compound A50] | 70% | 100% | 20% | 70% |  |  |  | 
21 | Cc1cc(C)c(C2C(=O)CC(CCNC(=O)c3nonc3C)C2=O)c(C)c1 (centres unmarked) [Compound A51] | 90% | 100% | 100% | 90% |  |  |  | 
22 | Cc1cc(C)c(C2C(=O)CC(CCNC(=O)c3cc4ccccc4n3C)C2=O)c(C)c1 (centres unmarked) [Compound A52] | 100% | 90% | 70% | 70% |  |  |  | 
23 | Cc1cc(C)c(C2C(=O)CC(CCNC(=O)c3cscn3)C2=O)c(C)c1 (centres unmarked) [Compound A53] | 100% | 100% | 80% | 90% |  |  |  | 
24 | Cc1cc(C)c(C2C(=O)CC(CCNC(=O)c3nn(C)nc3C)C2=O)c(C)c1 (centres unmarked) [Compound A54] | 60% | 100% | 100% | 100% |  |  |  | 
25 | Cc1cc(C)c(C2C(=O)CC(CCNC(=O)c3cnccn3)C2=O)c(C)c1 (centres unmarked) [Compound A55] | 90% | 90% | 80% | 60% |  |  |  | 
26 | Cc1cc(C)c(C2C(=O)CC(CCNC(=O)c3cnc(C)cn3)C2=O)c(C)c1 (centres unmarked) [Compound A56] | 90% | 100% | 100% | 90% |  |  |  | 
27 | Cc1cc(C)c(C2C(=O)CC(CCNC(=O)c3ccc(C#N)cn3)C2=O)c(C)c1 (centres unmarked) [Compound A57A] |  |  |  |  | 90% | 90% | 100% | 90%
28 | Cc1cc(C)c(C2C(=O)CC(CCNC(=O)c3ccc(C#N)cn3)C2=O)c(C)c1 (centres unmarked) [Compound A57] | 100% | 100% | 100% | 100% |  |  |  | 
29 | Cc1cc(C)c(C2C(=O)CC(CCNC(=O)c3cccn3C)C2=O)c(C)c1 (centres unmarked) [Compound A58] | 50% | 80% | 50% | 30% |  |  |  | 
30 | Cc1cc(C)c(C2C(=O)CC(CCNC(=O)c3nccn3C)C2=O)c(C)c1 (centres unmarked) [Compound A59] | 30% | 80% | 60% | 60% |  |  |  | 
31 | Cc1cc(C)c(C2C(=O)CC(CCNC(=O)c3cnsn3)C2=O)c(C)c1 (centres unmarked) [Compound A60] | 70% | 80% | 80% | 90% |  |  |  | 
32 | Cc1cc(C)c(C2C(=O)CC(CCNC(=O)c3cc(C)on3)C2=O)c(C)c1 (centres unmarked) [Compound A61] | 70% | 100% | 90% | 60% |  |  |  | 
33 | Cc1cc(C)c(C2C(=O)CC(CCNC(=O)c3ncccc3C)C2=O)c(C)c1 (centres unmarked) [Compound A62] | 80% | 100% | 100% | 80% |  |  |  | 
34 | Cc1cc(C)c(C2C(=O)CC(CCNC(=O)c3nccc4ccccc34)C2=O)c(C)c1 (centres unmarked) [Compound A63] | 90% | 100% | 90% | 90% |  |  |  | 
35 | Cc1cc(C)c(C2C(=O)CC(CCNC(=O)c3cccc(C)n3)C2=O)c(C)c1 (centres unmarked) [Compound A64] | 60% | 80% | 90% | 80% |  |  |  | 
